Test results: article PMC4950264 (Molecular Ecology, 2016)

Target: T1, CYP6Z1 (Anopheles funestus, UniProt Z9NKG6IF05)
T1 sequence (Z9NKG6IF05 1-492): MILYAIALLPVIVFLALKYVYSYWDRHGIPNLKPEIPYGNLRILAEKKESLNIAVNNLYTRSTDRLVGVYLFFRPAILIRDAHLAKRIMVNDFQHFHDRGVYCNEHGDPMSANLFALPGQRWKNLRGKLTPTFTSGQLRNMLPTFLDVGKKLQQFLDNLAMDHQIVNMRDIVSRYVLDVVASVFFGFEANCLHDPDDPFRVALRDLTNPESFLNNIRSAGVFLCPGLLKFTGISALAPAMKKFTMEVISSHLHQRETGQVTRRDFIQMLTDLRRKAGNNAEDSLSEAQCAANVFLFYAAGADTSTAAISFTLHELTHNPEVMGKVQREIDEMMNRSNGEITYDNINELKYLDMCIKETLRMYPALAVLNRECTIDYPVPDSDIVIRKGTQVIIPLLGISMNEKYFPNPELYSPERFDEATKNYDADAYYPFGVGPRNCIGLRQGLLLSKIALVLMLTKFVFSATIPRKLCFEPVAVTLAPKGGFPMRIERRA

Compound | IC50 [µM]
Clc1ccc(C(c2ccc(Cl)cc2)C(Cl)(Cl)Cl)cc1 [DDT] | 8.9
CNC(=O)Oc1cccc2c1OC(C)(C)O2 [bendiocarb] | 9.5
